Data on two compounds can be found in US7084301B2 (Ranbaxy Laboratories Limited, priority 2003, dated 2006).

Where two headings read alike, the source gives them in different places.

Assay [1] deals with anaesthetised normotensive rats. The experiment in a line: Hypotensive effect in anaesthetised normotensive rats. Format: in vivo, rat. As to conditions: for effect on blood pressure / effect on heart rate accompanying fall in blood pressure: anaesthetised normotensive rats, cumulative 0.01-10 μg/kg; for ED20: Effective dose to produce a fall in blood pressure by 20%: urethane-anaesthetised male normotensive rats, cumulative doses via femoral vein. As for the experimental part: Male normotensive rats were anaesthetised with urethane (1.2 g/kg, i.p.). Carotid artery and femoral vein were cannulated for recording blood pressure and administration of test compounds respectively. Trachea was cannulated to maintain the airway patency. Rats were divided into two groups of 10 rats each. Group I received compound of Formula I, and Group II received Tamsulosin. Compounds were administered cumulatively at dose level of 0.01, 0.03, 0.1, 0.3, 1 & 10 μg/kg and effects on blood pressure and heart rate were monitored. Each subsequent dose in cumulative dose range was administered after previous response had stabilized.
Blood pressure and heart rate were recorded before and after drug treatment on a Grass polygraph using a Statham pressure transducer and tachograph. Effect on blood pressure was expressed as percentage change from the basal level. ED20 was calculated by fitting the cumulative dose response data in non-linear regression analysis and the value was taken from the curve. Effect on heart rate was expressed as change in beats/min.
To compare the difference amongst the dose groups one-way ANOVA followed by Dunett ‘t’ test was applied. A p of <0.05 was considered statistically significant.

The target in assay [2] is T1, rat α1B-adrenoceptor (spleen) (Rattus norvegicus, UniProt P15823).
T1 sequence (P15823 1-515): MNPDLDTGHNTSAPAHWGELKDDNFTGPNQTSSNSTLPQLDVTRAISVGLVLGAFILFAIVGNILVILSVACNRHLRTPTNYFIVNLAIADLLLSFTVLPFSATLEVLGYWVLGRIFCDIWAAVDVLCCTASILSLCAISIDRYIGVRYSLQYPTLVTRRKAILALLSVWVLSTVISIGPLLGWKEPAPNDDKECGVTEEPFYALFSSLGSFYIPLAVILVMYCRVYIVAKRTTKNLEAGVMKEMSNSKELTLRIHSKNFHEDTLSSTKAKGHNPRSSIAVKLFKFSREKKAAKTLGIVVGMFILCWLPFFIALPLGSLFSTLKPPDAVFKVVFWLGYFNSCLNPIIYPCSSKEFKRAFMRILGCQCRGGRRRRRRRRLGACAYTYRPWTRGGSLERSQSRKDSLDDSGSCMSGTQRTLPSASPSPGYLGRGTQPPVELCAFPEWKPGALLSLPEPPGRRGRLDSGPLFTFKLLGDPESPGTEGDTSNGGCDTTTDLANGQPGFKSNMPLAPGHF
Briefly: In-vitro functional study, agonist-induced contractile response on isolated rat spleen. It counts as biochemical. As for the experimental part: Aorta, prostate and spleen tissues were isolated from urethane anaesthetized (1.5 gm/kg) male wistar rats. Isolated tissues were mounted in organ bath containing Krebs Henseleit buffer of following compostion (mM): NaCl 118; KCl 4.7; CaCl2 2.5; MgSO4.7H2O 1.2; NaHCO3 25; KH2PO4 1.2; glucose 11.5. Buffer was maintained at 37° C. and aerated with a mixture of 95% O2 and 5% CO2. A resting tension of 2 g (aorta) or 1 g (spleen and prostate) was applied to tissues. Contractile response was monitored using a force displacement transducer and recorded on chart recorders. Tissues were allowed to equilibrate for 2 hours. At the end of equilibration period, concentration response curves to norepinephrine (aorta) and phenylepinephrine (spleen and prostate) were obtained in absence and presence of tested compound (at concentrations of […]). Antagonist affinities were calculated and expressed as pKB vales in Table II.
To compare the differences in pKB at the α1-arenrenoceptor subtypes one-way ANOVA followed by Dunett ‘t’ test was applied. A p<0.05 was considered statistically significant.

For a further assay, the target named is D-3 receptors (Homo sapiens, UniProt P35462). The experiment in a line: Radioligand-receptor binding assay, human recombinant D3 receptors, [3H]Spiperone. As for the experimental part:
Receptor binding assays were performed using human recombinant D3 receptors. […] Non-specific binding was defined by 25 μM S(−)Sulpiride.

The target of the next assay is T2, 5-HT1A receptors (Homo sapiens, UniProt P08908).
T2 sequence (P08908 1-422): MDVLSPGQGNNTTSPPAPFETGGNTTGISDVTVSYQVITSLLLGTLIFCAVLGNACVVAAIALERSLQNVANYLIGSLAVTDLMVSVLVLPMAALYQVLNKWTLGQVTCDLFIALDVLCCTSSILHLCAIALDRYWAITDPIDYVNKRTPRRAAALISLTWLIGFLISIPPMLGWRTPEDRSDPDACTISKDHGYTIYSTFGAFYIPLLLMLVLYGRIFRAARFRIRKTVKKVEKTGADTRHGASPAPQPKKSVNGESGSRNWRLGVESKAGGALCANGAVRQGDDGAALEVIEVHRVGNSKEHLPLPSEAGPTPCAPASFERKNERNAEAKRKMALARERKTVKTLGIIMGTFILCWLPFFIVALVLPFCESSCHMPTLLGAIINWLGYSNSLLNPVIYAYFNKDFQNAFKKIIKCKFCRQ
The experiment in a line: biochemical. Format: binding. As for the experimental part:
Receptor binding assays were performed using human recombinant 5HT1A receptors. […] Non-specific binding was defined by 10 μM Metergoline.

D-3 receptors, sequence (P35462 whole entry): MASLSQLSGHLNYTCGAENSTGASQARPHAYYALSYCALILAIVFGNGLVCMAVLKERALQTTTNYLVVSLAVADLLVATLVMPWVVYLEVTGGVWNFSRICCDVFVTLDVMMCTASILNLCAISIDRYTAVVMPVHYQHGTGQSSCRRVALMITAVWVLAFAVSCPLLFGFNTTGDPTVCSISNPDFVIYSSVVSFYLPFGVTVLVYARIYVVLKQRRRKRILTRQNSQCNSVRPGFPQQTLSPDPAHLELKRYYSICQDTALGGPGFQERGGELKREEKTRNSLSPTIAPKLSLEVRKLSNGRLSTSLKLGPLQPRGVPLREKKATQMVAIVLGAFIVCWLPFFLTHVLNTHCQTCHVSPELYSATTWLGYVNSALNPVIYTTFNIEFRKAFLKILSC

As to `CCOc1ccccc1OCCNC(C)Cc1ccc(OC)c(S(N)(=O)=O)c1` (single isomer, unassigned; (-)) [Tamsulosin, (−) isomer of 5-[2-[2-(2-ethoxyphenoxy)ethylamino]-2-methylethyl]-2-methoxybenzene sulfonamide, reference compound], in assay [1], the “effect on blood pressure” value is reported as “dose dependent fall in blood pressure”, the “effect on heart rate accompanying fall in blood pressure” value was “decrease in the heart rate” and the “ED20: Effective dose to produce a fall in blood pressure by 20%” value was 0.3 µg/kg. In addition, in assay [2] (rat spleen, phenylepinephrine-induced contraction, *p < 0.05 vs pKB at prostate tissue, read-out: pKB α1B (converted)), the Kb was 0.275 nM. Further, the Ki on D-3 receptors is 0.282 nM. Further, the Ki at 5-HT1A receptors (human recombinant receptors, read-out: PKi 5HT1A (converted)) was 0.794 nM.

With `CCOc1ccccc1OCCN[C@H](C)Cc1ccc(O)c(S(N)(=O)=O)c1` [Formula I, R (−)-5-[2-[[2-(2-ethoxyphenoxy)ethyl]amino]propyl]-2-hydroxybenzenesulfonamide], in assay [1], the “effect on blood pressure” value was “dose dependent fall in blood pressure”, the “effect on heart rate accompanying fall in blood pressure” value is recorded as “increase in heart rate” and the “ED20: Effective dose to produce a fall in blood pressure by 20%” value stood at 0.52 µg/kg. In assay [2], this compound showed a Kb of 0.501 nM. Moreover, the Ki on D-3 receptors is 1.78 nM. In addition, the “fold greater α1A versus D3 selectivity as compared to tamsulosin” value at D-3 receptors (Table I and IV) was 14 fold. Besides, the “fold lower affinity for D3 receptors than tamsulosin” value on D-3 receptors (human recombinant receptors) turned out to be 6 fold. The Ki at 5-HT1A receptors was 9.77 nM. In addition, the “fold greater α1A versus 5HT1A selectivity as compared to tamsulosin” value at 5-HT1A receptors (Tables I and III) was 27 fold. The “fold lower affinity for 5HT1A receptors than tamsulosin” value on 5-HT1A receptors (human recombinant receptors) is 12.6 fold.
